The source of these data is US20070010671A1, “Novel quinazoline derivatives and methods of treatment related to the use thereof” (priority 2003, published 2007).

The assay concerns the target MCH receptor (Homo sapiens, UniProt Q99705). Put plainly: High throughput functional screening FLIPR/FDSS6000: inhibition of MCH-evoked intracellular Ca2+ changes. The assay is classed as cell-based. The following applies: class by percent of control at 10^-7 M or IC50. Summed up: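 Cells expressing constitutively active MCH receptor, loaded with 4 μM Fluo4-AM for 1 h at 37 °C, were pretreated 3 min with compound, then challenged with MCH (50 nM for antagonist testing). MCH-evoked [Ca2+]i transients followed by FLIPR or FDSS (ex 488/em 530 nm) over 290 s.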

SMILES strings stand for the structures.

In the case of `COc1ccc(CNC(=O)NC[C@H]2CC[C@@H](Nc3nc(N(C)C)c4ccccc4n3)CC2)cc1` [compound 449], the class is listed as 3 (Class 3: The value of percent of control at 10^−7 M was more than 60% or the value of IC50 was more than 200 nM.).
For `CN(C)c1nc(N[C@H]2CC[C@@H](CNC(=O)Nc3cccc4ccccc34)CC2)nc2ccccc12` [compound 450, N-[(cis-4-{[4-(dimethylamino)quinazolin-2-yl]amino}cyclohexyl)methyl]-N′-1-naphthylurea] the value was 2 (Class 2: The value of percent of control at 10^−7 M was from 40% to 60% or the value of IC50 was from 50 nM to 200 nM.); for `CN(C)c1nc(N[C@H]2CC[C@@H](CNC(=O)NC3C[C@H]3c3ccccc3)CC2)nc2ccccc12` (some centres unmarked) [compound 451], 3 (Class 3: The value of percent of control at 10^−7 M was more than 60% or the value of IC50 was more than 200 nM.).
For `CN(C)c1nc(N[C@H]2CC[C@@H](CNC(=O)Nc3ccccc3)CC2)nc2ccccc12` [compound 452, N-[(cis-4-{[4-(dimethylamino)quinazolin-2-yl]amino}cyclohexyl)methyl]-N′-phenylurea] the value was 1 (Class 1: The value of percent of control at 10^−7 M was less than 40% or the value of IC50 was less than 50 nM.); for `CN(C)c1nc(N[C@H]2CC[C@@H](CNC(=O)Nc3ccc(Oc4ccccc4)cc3)CC2)nc2ccccc12` [compound 453], 3 (Class 3: The value of percent of control at 10^−7 M was more than 60% or the value of IC50 was more than 200 nM.); for `CCCCCNC(=O)NC[C@H]1CC[C@@H](Nc2nc(N(C)C)c3ccccc3n2)CC1` [compound 454, N-[(cis-4-{[4-(dimethylamino)quinazolin-2-yl]amino}cyclohexyl)methyl]-N′-pentylurea], 2 (Class 2: The value of percent of control at 10^−7 M was from 40% to 60% or the value of IC50 was from 50 nM to 200 nM.).
Under `CN(C)c1nc(N[C@H]2CC[C@@H](CNC(=O)Nc3ccccc3C(F)(F)F)CC2)nc2ccccc12` [compound 455, N-[(cis-4-{[4-(dimethylamino)quinazolin-2-yl]amino}cyclohexyl)methyl]-N′-[2-(trifluoromethyl)phenyl]urea] stands 1 (Class 1: The value of percent of control at 10^−7 M was less than 40% or the value of IC50 was less than 50 nM.).
For the compound `CN(C)c1nc(N[C@H]2CC[C@@H](CNC(=O)Nc3cccc(C(F)(F)F)c3)CC2)nc2ccccc12` [compound 456], the class is on record as 3 (Class 3: The value of percent of control at 10^−7 M was more than 60% or the value of IC50 was more than 200 nM.).
In the case of `Cc1ccc(NC(=O)NC[C@H]2CC[C@@H](Nc3nc(N(C)C)c4ccccc4n3)CC2)cc1` [compound 457, N-[(cis-4-{[4-(dimethylamino)quinazolin-2-yl]amino}cyclohexyl)methyl]-N′-(4-methylphenyl)urea], the class was 1 (Class 1: The value of percent of control at 10^−7 M was less than 40% or the value of IC50 was less than 50 nM.).
For `Cc1cc(C)c(NC(=O)NC[C@H]2CC[C@@H](Nc3nc(N(C)C)c4ccccc4n3)CC2)c(C)c1` [compound 458, N-[(cis-4-{[4-(dimethylamino)quinazolin-2-yl]amino}cyclohexyl)methyl]-N′-mesitylurea] the value was 1 (Class 1: The value of percent of control at 10^−7 M was less than 40% or the value of IC50 was less than 50 nM.); for `Cc1cccc(NC(=O)NC[C@H]2CC[C@@H](Nc3nc(N(C)C)c4ccccc4n3)CC2)c1` [compound 459, N-[(cis-4-{[4-(dimethylamino)quinazolin-2-yl]amino}cyclohexyl)methyl]-N′-(3-methylphenyl)urea], 2 (Class 2: The value of percent of control at 10^−7 M was from 40% to 60% or the value of IC50 was from 50 nM to 200 nM.); for `Cc1ccccc1NC(=O)NC[C@H]1CC[C@@H](Nc2nc(N(C)C)c3ccccc3n2)CC1` [compound 460, N-[(cis-4-{[4-(dimethylamino)quinazolin-2-yl]amino}cyclohexyl)methyl]-N′-(2-methylphenyl)urea], 1 (Class 1: The value of percent of control at 10^−7 M was less than 40% or the value of IC50 was less than 50 nM.).
For `CN(C)c1nc(N[C@H]2CC[C@@H](CNC(=O)Nc3c(Cl)cc(Cl)cc3Cl)CC2)nc2ccccc12` [compound 463, N-[(cis-4-{[4-(dimethylamino)quinazolin-2-yl]amino}cyclohexyl)methyl]-N′-(2,4,6-trichlorophenyl)urea] the value was 1 (Class 1: The value of percent of control at 10^−7 M was less than 40% or the value of IC50 was less than 50 nM.).
Under `Cc1ccc(NC(=O)NC[C@H]2CC[C@@H](Nc3nc(N(C)C)c4ccccc4n3)CC2)cc1Cl` [compound 464] stands 3 (Class 3: The value of percent of control at 10^−7 M was more than 60% or the value of IC50 was more than 200 nM.).
Consider `CC(NC(=O)NCC1CCC(Nc2nc(N(C)C)c3ccccc3n2)CC1)c1ccccc1` (centres unmarked) [compound 466, 1-[4-(4-Dimethylamino-quinazolin-2-ylamino)-cyclohexylmethyl]-3-(1-phenyl-ethyl)-urea], for which the class is reported as 2 (Class 2: The value of percent of control at 10^−7 M was from 40% to 60% or the value of IC50 was from 50 nM to 200 nM.).
Under `CC(NC(=O)NCC1CCC(Nc2nc(N(C)C)c3ccccc3n2)CC1)c1cccc2ccccc12` (centres unmarked) [compound 467] stands 2 (Class 2: The value of percent of control at 10^−7 M was from 40% to 60% or the value of IC50 was from 50 nM to 200 nM.); under `CC(C)c1cccc(C(C)C)c1NC(=O)NC[C@H]1CC[C@@H](Nc2nc(N(C)C)c3ccccc3n2)CC1` [compound 468], 1 (Class 1: The value of percent of control at 10^−7 M was less than 40% or the value of IC50 was less than 50 nM.); under `CN(C)c1nc(N[C@H]2CC[C@@H](CNC(=O)Nc3ccccc3OC(F)F)CC2)nc2ccccc12` [compound 469, N-[2-(difluoromethoxy)phenyl]-N′-[(cis-4-{[4-(dimethylamino)quinazolin-2-yl]amino}cyclohexyl)methyl]urea], 2 (Class 2: The value of percent of control at 10^−7 M was from 40% to 60% or the value of IC50 was from 50 nM to 200 nM.).
Under `COC(=O)c1ccccc1NC(=O)NC[C@H]1CC[C@@H](Nc2nc(N(C)C)c3ccccc3n2)CC1` [compound 470, methyl 2-[({[(cis-4-{[4-(dimethylamino)quinazoalin-2-yl]amino}cyclohexyl)methyl]amino}carbonyl)amino]benzoate] stands 3 (Class 3: The value of percent of control at 10^−7 M was more than 60% or the value of IC50 was more than 200 nM.).
Under `CSc1ccccc1NC(=O)NC[C@H]1CC[C@@H](Nc2nc(N(C)C)c3ccccc3n2)CC1` [compound 471, N-[(cis-4-{[4-(dimethylamino)quinazolin-2-yl]amino}cyclohexyl)methyl]-N′-[2-(methylthio)phenyl]urea] stands 2 (Class 2: The value of percent of control at 10^−7 M was from 40% to 60% or the value of IC50 was from 50 nM to 200 nM.); under `CN(C)c1nc(N[C@H]2CC[C@@H](CNC(=O)Nc3c(Cl)c(Cl)cc(Cl)c3Cl)CC2)nc2ccccc12` [compound 472, N-[(cis-4-{[4-(dimethylamino)quinazolin-2-yl]amino}cyclohexyl)methyl]-N′-(2,3,5,6-tetrachlorophenyl)urea], 2 (Class 2: The value of percent of control at 10^−7 M was from 40% to 60% or the value of IC50 was from 50 nM to 200 nM.); under `Cc1ccc([N+](=O)[O-])c(NC(=O)NC[C@H]2CC[C@@H](Nc3nc(N(C)C)c4ccccc4n3)CC2)c1C` [compound 473], 1 (Class 1: The value of percent of control at 10^−7 M was less than 40% or the value of IC50 was less than 50 nM.).
On to `CN(C)c1nc(N[C@H]2CC[C@@H](CNC(=O)Nc3cc(Cl)c(Cl)cc3Cl)CC2)nc2ccccc12` [compound 474], for which the class is on record as 3 (Class 3: The value of percent of control at 10^−7 M was more than 60% or the value of IC50 was more than 200 nM.).
Regarding `CN(C)c1nc(N[C@H]2CC[C@@H](CNC(=O)Nc3c(F)cc(Br)cc3Br)CC2)nc2ccccc12` [compound 476, N-(2,4-dibromo-6-fluorophenyl)-N′-[(cis-4-{[4-(dimethylamino)quinazolin-2-yl]amino}cyclohexyl)methyl]urea], the class is given as 1 (Class 1: The value of percent of control at 10^−7 M was less than 40% or the value of IC50 was less than 50 nM.).
As for `CN(C)c1nc(N[C@H]2CC[C@@H](CNC(=O)Nc3ccc(Br)cc3Br)CC2)nc2ccccc12` [compound 477], the class was 3 (Class 3: The value of percent of control at 10^−7 M was more than 60% or the value of IC50 was more than 200 nM.).
In the case of `CN(C)c1nc(N[C@H]2CC[C@@H](CNC(=O)NCc3ccc(Cl)cc3Cl)CC2)nc2ccccc12` [compound 478, N-(2,4-dichlorobenzyl)-N′-[(cis-4-{[4-(dimethylamino)quinazolin-2-yl]amino}cyclohexyl)methyl]urea], the class is given as 2 (Class 2: The value of percent of control at 10^−7 M was from 40% to 60% or the value of IC50 was from 50 nM to 200 nM.).
Under `COc1ccc(NC(=O)NC[C@H]2CC[C@@H](Nc3nc(N(C)C)c4ccccc4n3)CC2)c(OC)c1` [compound 479] stands 3 (Class 3: The value of percent of control at 10^−7 M was more than 60% or the value of IC50 was more than 200 nM.); under `Cc1ccc(C)c(NC(=O)NC[C@H]2CC[C@@H](Nc3nc(N(C)C)c4ccccc4n3)CC2)c1` [compound 481], 3 (Class 3: The value of percent of control at 10^−7 M was more than 60% or the value of IC50 was more than 200 nM.); under `CN(C)c1nc(N[C@H]2CC[C@@H](CNC(=O)Nc3c(Br)cc(F)cc3Br)CC2)nc2ccccc12` [compound 482, N-(2,6-dibromo-4-fluorophenyl)-N′-[(cis-4-{[4-(dimethylamino)quinazolin-2-yl]amino}cyclohexyl)methyl]urea], 1 (Class 1: The value of percent of control at 10^−7 M was less than 40% or the value of IC50 was less than 50 nM.).
